According to PubChem BioAssay (NCI):
Values joined by “and” are separate entries in the source; they are usually repeats but may differ in a detail not shown here. Equal values may be shown once.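 Method: 48-hour compound exposure of cells in 96-well plates, five concentrations, linear interpolation of endpoints. GI50: concentration for 50% inhibition of growth. TGI marks complete inhibition of growth.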

Experiments:
Assay in all cases: NCI anticancer screen, dose series, 48 h
K-562 leukemia = tested on: K-562 leukemia
SF-268 CNS = tested on: SF-268 CNS
786-0 renal = tested on: 786-0 renal
HCC-2998 colon = tested on: HCC-2998 colon
M14 melanoma = tested on: M14 melanoma
SW-620 colon = tested on: SW-620 colon
MOLT-4 leukemia = tested on: MOLT-4 leukemia
KM12 colon = tested on: KM12 colon
UACC-62 melanoma = tested on: UACC-62 melanoma
OVCAR-8 ovarian = tested on: OVCAR-8 ovarian

Structure (SMILES) | GI50 (K-562 leukemia) | TGI (K-562 leukemia) | GI50 (SF-268 CNS) | TGI (SF-268 CNS) | GI50 (786-0 renal) | TGI (786-0 renal) | GI50 (HCC-2998 colon) | TGI (HCC-2998 colon) | GI50 (M14 melanoma) | TGI (M14 melanoma) | GI50 (SW-620 colon) | TGI (SW-620 colon) | GI50 (MOLT-4 leukemia) | TGI (MOLT-4 leukemia) | GI50 (KM12 colon) | TGI (KM12 colon) | GI50 (UACC-62 melanoma) | TGI (UACC-62 melanoma) | GI50 (OVCAR-8 ovarian) | TGI (OVCAR-8 ovarian)
O=C(NCc1cccnc1)c1ccc([N+](=O)[O-])o1 | 2.06 µM | > 32.5 µM | 4.83 µM | > 22.1 µM | 2.9 µM | 16.6 µM | 1.83 µM | 6.05 µM | 1.42 µM | 5.12 µM | 1.47 µM | 5.58 µM | > 20 µM | > 32.5 µM | 1.32 µM | 5.32 µM | 1.06 µM | 4.42 µM | 2.37 µM | 14.5 µM
Oc1ccc(/C=N/Nc2nnc(N/N=C/c3ccc(O)cc3O)c3ccccc23)c(O)c1 | 0.346 µM |  | 0.353 µM |  | 0.593 µM | 2.46 µM | 0.446 µM | 2.42 µM | 0.358 µM | 1.53 µM |  | 7.71 µM | 0.432 µM |  | 0.375 µM | 0.8 µM and 1.54 µM | 0.318 µM | 0.602 µM and 1.58 µM | 0.494 µM | 
O=C(O)C12C3C4C1C1C2C3C41I (stereo not given) |  | > 100 µM |  | > 100 µM |  | > 100 µM |  | > 100 µM |  | > 100 µM |  | > 100 µM |  | > 100 µM |  | > 100 µM |  | > 100 µM |  | > 100 µM
COC(=O)CCSC(=O)Nc1ccccc1Cl |  | > 100 µM |  | > 100 µM |  | > 100 µM |  | > 100 µM |  | > 100 µM |  | > 100 µM |  | > 100 µM |  | > 100 µM |  | > 100 µM |  | > 100 µM
CC(C)=NO.CC(C)=NO.CC(C)=NO.CC(C)=NO.[Ti] | > 100 µM | > 100 µM | > 100 µM | > 100 µM | > 100 µM | > 100 µM | > 100 µM | > 100 µM | > 100 µM | > 100 µM | > 100 µM | > 100 µM | > 100 µM | > 100 µM | > 100 µM | > 100 µM | > 100 µM | > 100 µM | > 100 µM | > 100 µM
COc1cc2nccc(Oc3ccc(NC(=O)C4(C(=O)Nc5ccc(F)cc5)CC4)cc3)c2cc1OC | 2.15 µM and 0.281 µM | > 10 µM and 2.82 µM | > 10 µM and 4.54 µM | > 100 µM | > 10 µM and 5.52 µM | > 54.9 µM | > 10 µM and 6.29 µM | > 100 µM | > 10 µM and 2.9 µM | > 10 µM and 18.3 µM | 9.09 µM and 2.38 µM | > 34.5 µM | > 10 µM and 3.44 µM | > 59.1 µM | 0.333 µM and 0.0482 µM | > 100 µM | 4.74 µM and 1.97 µM | > 10 µM and 32.3 µM | > 10 µM and 5.74 µM | > 100 µM
O=C1COc2c(CCNCCN(C(=O)CCNCCc3ccc(Cl)c(Cl)c3)C3CCCCC3)ccc(O)c2N1 | 16.2 µM | 34.1 µM | 14.7 µM | 30.3 µM | 17.2 µM | 32.9 µM | 18.7 µM | 35.1 µM | 16.6 µM | 31.8 µM | 16 µM | 31 µM | 15.8 µM | 34.5 µM | 19 µM | 35.5 µM | 15.5 µM | 30.4 µM | 17.2 µM | 34 µM
CCOC(=O)C1C(=O)C(=O)N2CCc3c([nH]c4ccccc34)C12 (stereo not given) |  | > 100 µM |  | > 100 µM |  | > 100 µM |  | > 100 µM |  | > 100 µM |  | > 100 µM |  | > 100 µM |  | > 100 µM |  | > 100 µM |  | > 100 µM
CC(=O)Nc1ccc(C(=O)NN2C(=O)CSC2c2ccccc2)cc1 (stereo not given) |  | > 100 µM |  | > 100 µM |  | > 100 µM |  | > 100 µM |  | > 100 µM |  | > 100 µM |  | > 100 µM |  | > 100 µM |  | > 100 µM |  | > 100 µM
CN(C)C(=O)c1cc2cnc(Nc3ccc(N4CCNCC4)cn3)nc2n1C1CCCC1 | 17.6 µM | > 100 µM | 14.1 µM | 38.3 µM | 11.4 µM | 49.8 µM | 27.8 µM | > 100 µM | 15.7 µM | 39.1 µM | 1.21 µM | 66 µM | 1.8 µM | 34.5 µM | 2.85 µM | 32.9 µM | 15.4 µM | 34 µM | 23.7 µM | 89.7 µM
O=C1OC(c2ccccc2)=N/C1=C\c1ccc(N(CCCl)CCCl)cc1 |  | > 100 µM |  | > 100 µM |  | > 100 µM |  | > 100 µM |  | > 100 µM |  | > 100 µM |  | > 79.9 µM |  | > 100 µM |  | > 100 µM |  | > 100 µM
O=C(COC(=O)[C@H](C[Se][Se]C[C@H](NC(=O)c1ccc(Br)cc1F)C(=O)OCC(=O)c1ccc(F)cc1)NC(=O)c1ccc(Br)cc1F)c1ccc(F)cc1 | 2.83 µM | > 26.4 µM | 0.52 µM | 1.18 µM | 0.9 µM | 2.23 µM | 1.39 µM | 3.56 µM | 1.08 µM | 2.9 µM | 0.878 µM | 2.43 µM | 3.54 µM | 71.3 µM | 0.301 µM | 0.793 µM | 1.69 µM | 4.83 µM | 0.408 µM | 1.61 µM
O=[N+]([O-])c1cccc(C2=NOC3CCCC23)c1 (stereo not given) |  | > 100 µM |  | > 100 µM |  | > 100 µM |  | > 100 µM |  | > 100 µM |  | > 100 µM |  | > 100 µM |  | > 100 µM |  | > 100 µM |  | > 100 µM
O=C(Nc1ccccc1)Oc1ccccc1C1CCCCC1 |  | 50.3 µM |  | > 100 µM |  | 53.2 µM |  | 81.5 µM |  | 56.7 µM |  | 72.5 µM |  | > 100 µM |  | > 100 µM |  | > 100 µM |  | > 100 µM
CCn1c(SC)nnc1-c1cc2c([nH]c3ccccc32)c(-c2cccc(O)c2)n1 | 0.547 µM | > 100 µM | 3.42 µM | 25.5 µM | 2.77 µM | 10.9 µM | 4.94 µM | 62.3 µM | 1.48 µM | 12.5 µM | 1.44 µM | > 100 µM | 2.05 µM | > 100 µM | 3 µM | 44.7 µM | 1.27 µM | 8.71 µM | 3.62 µM | 24.5 µM
COc1cccc2c(Nc3ccc(C(=O)NCCN4CCNCC4)cc3)cc(-c3ccccc3)nc12 | 27.7 µM | 75.3 µM | 50.1 µM | > 100 µM | 51.1 µM | > 100 µM | 49.2 µM | > 100 µM | 20.1 µM | 38.7 µM | 29 µM | > 100 µM | 30.6 µM | > 100 µM | 30.8 µM | > 100 µM | 65.6 µM | > 100 µM | 39.2 µM | > 100 µM
CCc1c[nH]c2ncnc(N3CC[C@](N)(CNC(=O)c4ccc(F)cc4F)C3)c12 | > 54.1 µM | > 100 µM | 33.3 µM | > 100 µM | 0.479 µM | 19.8 µM | 11.5 µM | > 100 µM | 15.6 µM | > 100 µM | 23.1 µM | > 100 µM | 0.439 µM | 46.2 µM | 1.25 µM | > 100 µM | 3.33 µM | 45.1 µM | 28.2 µM | > 100 µM
CC(=O)OC1CCC2(C)C(=CCC3C4CC(CN5CC5)C(=O)C4(C)CCC32)C1 (stereo not given) | 3.33 µM | 14.2 µM | 13.9 µM | 28.2 µM | 7.91 µM | 20.9 µM | 14 µM | 30.4 µM | 14.2 µM | 31.7 µM | 3.17 µM | 13.3 µM | 3.1 µM | 8.3 µM | 3.11 µM | 11 µM | 11.7 µM | 24.6 µM | 12.2 µM | 26.2 µM
CN(C)c1ccc(/C=C2\Cc3ccccc3C2=O)cc1Br |  | > 100 µM |  | > 100 µM |  | > 100 µM |  | > 100 µM |  | > 100 µM |  | > 100 µM |  | 93.5 µM |  | > 100 µM |  | > 100 µM |  | > 100 µM
Brc1ccc2c(c1)-c1ccccc1C1=NCCN12 | 0.857 µM | 5.1 µM | 1.77 µM | 9.44 µM | 1.61 µM | 11.7 µM | 1.3 µM | 8.49 µM | 1.48 µM | 3.16 µM | 0.44 µM | 10.4 µM | 0.419 µM | 3.73 µM | 1.02 µM | 11.3 µM | 1.69 µM | 3.24 µM | 0.573 µM | 12.1 µM
CC1CC2C(=O)N(c3ccccc3)C(=O)C2c2[nH]c3ccccc3c21 (stereo not given) |  | > 100 µM |  | > 100 µM |  | > 100 µM |  | > 100 µM |  | > 100 µM |  | > 100 µM |  | > 100 µM |  | > 100 µM |  | > 100 µM |  | > 100 µM
Cn1ncc2c(c1=O)Nc1ccccc1S2(=O)=O |  | > 100 µM |  | > 100 µM |  | 75.3 µM |  | > 100 µM |  | > 100 µM |  | 32.4 µM |  | > 100 µM |  | > 100 µM |  | > 100 µM |  | > 100 µM
NC1CC(n2ccc(=O)[nH]c2=O)OC1C(O)CO (stereo not given) |  | > 100 µM |  | > 100 µM |  | > 100 µM |  | > 100 µM |  | > 100 µM |  | > 100 µM |  | > 100 µM |  | > 100 µM |  | > 100 µM |  | > 100 µM
COC(=O)c1ccccc1NCc1cc(O)ccc1O |  | > 59 µM |  | > 77.4 µM |  | 31.7 µM |  | > 55.7 µM |  | 17.1 µM |  | 52 µM |  | 76.9 µM |  | 53.2 µM |  | 45.5 µM |  | 34.5 µM
